Consider two compounds from publication PMC9161086, “Water-Soluble Trichogin GA IV-Derived Peptaibols Protect Tomato Plants From Botrytis cinerea Infection With Limited Impact on Plant Defenses” (Frontiers in Plant Science, 2022).

On the set-up of series [1]: method as in De Zotti et al., 2009. Particulars: ref De Zotti et al., 2009; cited from earlier work.
For series [2], the system named is methicillin-resistant human pathogens. The following applies: ref De Zotti et al., 2009; cited from earlier work.
Series [3] can be described thus: Hydrophilicity evaluated from HPLC retention times. The class given is physicochemical. The following applies: comparison to native Trichogin GA IV, C18 column Phenomenex Jupiter 5 μm, 300 Å, 250 × 4.5 mm, gradient 60%–100% B in 30 min, A H2O/CH3CN 9:1 0.05% TFA, B CH3CN/H2O 9:1 0.05% TFA.
Series [4] concerns Solanum lycopersicum cv. Micro-Tom leaves. In words: ROS detection with H2DCFDA on tomato leaves. Particulars: 50 μM in water, 10-μl droplets on abaxial surface of detached Micro-Tom leaves; 24 and 48 h; H2DCFDA fluorescence microscopy.

On to “1-octanoyl-Aib-Gly-Leu-Aib-Gly-Gly-Leu-Aib-Gly-Ile-Lol [Trichogin GA IV, 11-residue lipopeptaibol naturally produced by Trichoderma longibrachiatum]”, for which the Resistance to proteolysis entry in series [1] is “remarkable resistance to proteolysis”. In addition, the “Antibacterial activity against methicillin-resistant human pathogens” value in series [2] is reported as “antibacterial activity”.

As to `CCCCCCCC(=O)NC(C)(C)C(=O)NCC(=O)N[C@@H](CC(C)C)C(=O)NC(C)(C)C(=O)N[C@@H](CCCCN)C(=O)NC(C)(C)C(=O)N[C@@H](CC(C)C)C(=O)NC(C)(C)C(=O)NCC(=O)N[C@H](C(=O)N[C@@H](CC(C)C)C(N)=O)[C@@H](C)CC` [Pep 6r], in series [3], the Hydrophilicity result is “+”. Also, the “ROS production on tomato leaves” value in series [4] is reported as “only Pep 4-treated leaves showed ROS production”.
